Results reported in PMC7180948, “New Insights into 4-Anilinoquinazolines as Inhibitors of Cardiac Troponin I–Interacting Kinase (TNNi3K)” (Molecules, 2020).

Experiments:
Test in all cases: biochemical
Parameters in all cases: KINOMEscan competition binding panel (Eurofins DiscoverX), single concentration, percent inhibition
Details in all cases: read-out: 15 at 1 µM % inhibition
AURKA = AURKA (Homo sapiens, UniProt O14965)
Outline: (§1)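 KINOMEscan binding panel of >400 kinases, run by Eurofins DiscoverX, with compounds tested at a single concentration of 1 µM.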

ASK1 = biological target: T1, ASK1 (Homo sapiens, UniProt Q99683)
T1 construct: gene MAP3K5
Outline: as §1

KIT(L576P) = KIT(L576P) (Homo sapiens, UniProt P10721, L576P)
Outline: as §1

ERBB4 = ERBB4 (Homo sapiens, UniProt Q15303)
Sequence of ERBB4 (Q15303 whole entry): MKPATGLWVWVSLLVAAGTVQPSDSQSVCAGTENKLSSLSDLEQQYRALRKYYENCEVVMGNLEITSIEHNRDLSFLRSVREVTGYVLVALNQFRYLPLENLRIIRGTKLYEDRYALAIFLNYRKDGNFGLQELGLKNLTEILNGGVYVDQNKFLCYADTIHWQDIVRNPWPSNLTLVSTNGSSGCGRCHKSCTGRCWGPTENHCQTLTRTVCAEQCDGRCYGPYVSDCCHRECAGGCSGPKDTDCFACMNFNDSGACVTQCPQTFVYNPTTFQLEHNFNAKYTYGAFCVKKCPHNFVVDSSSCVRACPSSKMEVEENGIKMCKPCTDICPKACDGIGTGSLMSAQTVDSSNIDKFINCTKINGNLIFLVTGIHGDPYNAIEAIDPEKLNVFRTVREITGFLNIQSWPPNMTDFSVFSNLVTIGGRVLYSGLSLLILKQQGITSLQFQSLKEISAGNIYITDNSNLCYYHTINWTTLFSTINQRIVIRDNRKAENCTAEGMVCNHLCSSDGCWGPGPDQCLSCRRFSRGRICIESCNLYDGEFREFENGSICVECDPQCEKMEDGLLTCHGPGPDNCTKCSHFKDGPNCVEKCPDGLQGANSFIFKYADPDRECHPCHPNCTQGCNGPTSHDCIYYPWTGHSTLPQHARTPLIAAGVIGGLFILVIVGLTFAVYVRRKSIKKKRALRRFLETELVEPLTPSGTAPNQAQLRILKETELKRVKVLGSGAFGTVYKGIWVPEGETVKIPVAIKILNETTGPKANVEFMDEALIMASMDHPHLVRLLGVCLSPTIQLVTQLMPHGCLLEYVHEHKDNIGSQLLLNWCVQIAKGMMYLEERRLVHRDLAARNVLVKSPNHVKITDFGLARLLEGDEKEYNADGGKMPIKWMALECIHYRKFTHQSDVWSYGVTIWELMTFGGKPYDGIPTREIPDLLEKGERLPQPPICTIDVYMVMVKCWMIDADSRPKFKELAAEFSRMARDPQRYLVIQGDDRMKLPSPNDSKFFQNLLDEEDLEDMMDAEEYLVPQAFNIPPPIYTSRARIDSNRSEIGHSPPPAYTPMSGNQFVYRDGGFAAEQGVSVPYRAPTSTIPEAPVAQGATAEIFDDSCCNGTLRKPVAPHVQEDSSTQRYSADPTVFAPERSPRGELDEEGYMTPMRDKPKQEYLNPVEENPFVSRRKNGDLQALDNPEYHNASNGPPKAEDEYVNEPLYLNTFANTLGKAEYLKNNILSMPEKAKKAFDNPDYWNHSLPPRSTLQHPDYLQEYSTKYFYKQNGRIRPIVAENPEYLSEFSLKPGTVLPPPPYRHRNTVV
Outline: as §1

PDPK1 = PDPK1 (Homo sapiens, UniProt O15530)
Sequence of PDPK1 (O15530 whole entry): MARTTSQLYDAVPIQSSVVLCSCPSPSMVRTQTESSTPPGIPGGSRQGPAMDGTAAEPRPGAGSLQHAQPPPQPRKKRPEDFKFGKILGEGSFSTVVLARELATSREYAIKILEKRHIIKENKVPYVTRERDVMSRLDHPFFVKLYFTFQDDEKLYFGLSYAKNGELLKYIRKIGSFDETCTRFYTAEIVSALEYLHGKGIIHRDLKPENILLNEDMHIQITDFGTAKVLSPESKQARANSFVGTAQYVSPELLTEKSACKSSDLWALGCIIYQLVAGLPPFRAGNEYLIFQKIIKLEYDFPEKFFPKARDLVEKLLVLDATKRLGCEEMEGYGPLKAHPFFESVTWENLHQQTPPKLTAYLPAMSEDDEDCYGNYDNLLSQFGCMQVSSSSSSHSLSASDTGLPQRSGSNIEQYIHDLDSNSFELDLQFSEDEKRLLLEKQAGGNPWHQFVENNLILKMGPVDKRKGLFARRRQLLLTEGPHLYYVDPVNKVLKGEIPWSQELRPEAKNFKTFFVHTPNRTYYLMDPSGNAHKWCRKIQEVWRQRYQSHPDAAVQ
Outline: as §1

ZAP70 = ZAP70 (Homo sapiens, UniProt P43403)
Outline: as §1

EGFR(G719S) = EGFR(G719S) (Homo sapiens, UniProt P00533, G719S)
Outline: as §1

PKMYT1 = PKMYT1 (Homo sapiens, UniProt Q99640)
Outline: as §1

EGFR(L858R) = EGFR(L858R) (Homo sapiens, UniProt P00533, L858R)
Sequence of EGFR(L858R) (P00533 whole entry L858R): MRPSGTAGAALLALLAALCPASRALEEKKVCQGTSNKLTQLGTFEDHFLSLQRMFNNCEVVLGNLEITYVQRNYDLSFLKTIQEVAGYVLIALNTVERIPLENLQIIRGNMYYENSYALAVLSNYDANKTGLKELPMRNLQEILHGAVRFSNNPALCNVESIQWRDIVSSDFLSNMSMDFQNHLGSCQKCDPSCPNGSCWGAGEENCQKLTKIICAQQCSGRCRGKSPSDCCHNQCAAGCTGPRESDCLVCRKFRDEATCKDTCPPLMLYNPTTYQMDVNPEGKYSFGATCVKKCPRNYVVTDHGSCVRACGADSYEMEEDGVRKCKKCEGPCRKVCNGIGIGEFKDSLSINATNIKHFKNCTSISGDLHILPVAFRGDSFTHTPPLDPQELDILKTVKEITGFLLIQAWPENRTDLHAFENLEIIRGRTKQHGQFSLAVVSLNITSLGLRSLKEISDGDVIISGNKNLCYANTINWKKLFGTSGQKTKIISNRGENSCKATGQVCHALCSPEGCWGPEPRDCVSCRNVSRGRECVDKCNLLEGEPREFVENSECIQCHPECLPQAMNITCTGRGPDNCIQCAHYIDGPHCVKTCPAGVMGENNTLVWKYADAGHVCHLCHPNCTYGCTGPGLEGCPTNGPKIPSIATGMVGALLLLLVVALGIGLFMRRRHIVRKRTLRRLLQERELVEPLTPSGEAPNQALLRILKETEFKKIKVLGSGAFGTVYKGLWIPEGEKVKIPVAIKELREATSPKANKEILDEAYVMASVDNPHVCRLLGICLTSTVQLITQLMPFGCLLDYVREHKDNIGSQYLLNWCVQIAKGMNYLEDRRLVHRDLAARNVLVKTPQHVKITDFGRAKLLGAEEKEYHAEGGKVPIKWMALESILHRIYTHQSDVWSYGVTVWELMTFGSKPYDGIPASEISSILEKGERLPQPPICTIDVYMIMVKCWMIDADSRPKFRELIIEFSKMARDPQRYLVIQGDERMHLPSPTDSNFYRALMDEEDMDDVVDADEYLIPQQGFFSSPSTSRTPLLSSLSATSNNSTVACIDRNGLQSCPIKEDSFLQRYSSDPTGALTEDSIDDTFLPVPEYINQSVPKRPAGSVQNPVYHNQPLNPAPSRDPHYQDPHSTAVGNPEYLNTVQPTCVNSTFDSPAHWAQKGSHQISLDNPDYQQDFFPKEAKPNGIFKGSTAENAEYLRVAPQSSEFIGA
Outline: as §1

CAMK1 = CAMK1 (Homo sapiens, UniProt Q14012)
Outline: as §1

CDK8 = CDK8 (Homo sapiens, UniProt P49336)
Outline: as §1

PHKG2 = PHKG2 (Homo sapiens, UniProt P15735)
Sequence of PHKG2 (P15735 whole entry): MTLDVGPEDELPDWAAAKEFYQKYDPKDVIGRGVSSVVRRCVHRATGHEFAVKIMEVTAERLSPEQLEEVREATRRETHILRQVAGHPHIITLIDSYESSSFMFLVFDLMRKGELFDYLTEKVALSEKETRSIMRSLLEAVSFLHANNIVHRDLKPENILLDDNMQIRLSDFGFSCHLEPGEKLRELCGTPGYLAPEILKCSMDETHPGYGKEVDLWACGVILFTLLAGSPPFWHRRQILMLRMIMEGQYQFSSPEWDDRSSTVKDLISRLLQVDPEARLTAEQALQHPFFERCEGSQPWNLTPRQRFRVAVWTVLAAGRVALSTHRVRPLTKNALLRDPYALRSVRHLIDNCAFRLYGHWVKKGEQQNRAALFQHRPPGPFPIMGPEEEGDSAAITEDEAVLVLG
Outline: as §1

FLT3 = FLT3 (Homo sapiens, UniProt P36888)
Outline: as §1

TLK1 = TLK1 (Homo sapiens, UniProt Q9UKI8)
Outline: as §1

PRKG2 = PRKG2 (Homo sapiens, UniProt Q13237)
Outline: as §1

DDR2 = DDR2 (Homo sapiens, UniProt Q16832)
Outline: as §1

EGFR(G719C) = EGFR(G719C) (Homo sapiens, UniProt P00533, G719C)
Outline: as §1

BTK = BTK (Homo sapiens, UniProt Q06187)
Outline: as §1

ERK5 = biological target: T2, ERK5 (Homo sapiens, UniProt Q13164)
T2 construct: gene MAPK7
Outline: as §1

HIPK4 = HIPK4 (Homo sapiens, UniProt Q8NE63)
Outline: as §1

BMPR1B = BMPR1B (Homo sapiens, UniProt O00238)
Outline: as §1

[1] = biological target: T3, JAK1(JH1domain-catalytic) (Homo sapiens, UniProt P23458)
T3 construct: JH1domain-catalytic
T3 sequence (P23458 whole entry): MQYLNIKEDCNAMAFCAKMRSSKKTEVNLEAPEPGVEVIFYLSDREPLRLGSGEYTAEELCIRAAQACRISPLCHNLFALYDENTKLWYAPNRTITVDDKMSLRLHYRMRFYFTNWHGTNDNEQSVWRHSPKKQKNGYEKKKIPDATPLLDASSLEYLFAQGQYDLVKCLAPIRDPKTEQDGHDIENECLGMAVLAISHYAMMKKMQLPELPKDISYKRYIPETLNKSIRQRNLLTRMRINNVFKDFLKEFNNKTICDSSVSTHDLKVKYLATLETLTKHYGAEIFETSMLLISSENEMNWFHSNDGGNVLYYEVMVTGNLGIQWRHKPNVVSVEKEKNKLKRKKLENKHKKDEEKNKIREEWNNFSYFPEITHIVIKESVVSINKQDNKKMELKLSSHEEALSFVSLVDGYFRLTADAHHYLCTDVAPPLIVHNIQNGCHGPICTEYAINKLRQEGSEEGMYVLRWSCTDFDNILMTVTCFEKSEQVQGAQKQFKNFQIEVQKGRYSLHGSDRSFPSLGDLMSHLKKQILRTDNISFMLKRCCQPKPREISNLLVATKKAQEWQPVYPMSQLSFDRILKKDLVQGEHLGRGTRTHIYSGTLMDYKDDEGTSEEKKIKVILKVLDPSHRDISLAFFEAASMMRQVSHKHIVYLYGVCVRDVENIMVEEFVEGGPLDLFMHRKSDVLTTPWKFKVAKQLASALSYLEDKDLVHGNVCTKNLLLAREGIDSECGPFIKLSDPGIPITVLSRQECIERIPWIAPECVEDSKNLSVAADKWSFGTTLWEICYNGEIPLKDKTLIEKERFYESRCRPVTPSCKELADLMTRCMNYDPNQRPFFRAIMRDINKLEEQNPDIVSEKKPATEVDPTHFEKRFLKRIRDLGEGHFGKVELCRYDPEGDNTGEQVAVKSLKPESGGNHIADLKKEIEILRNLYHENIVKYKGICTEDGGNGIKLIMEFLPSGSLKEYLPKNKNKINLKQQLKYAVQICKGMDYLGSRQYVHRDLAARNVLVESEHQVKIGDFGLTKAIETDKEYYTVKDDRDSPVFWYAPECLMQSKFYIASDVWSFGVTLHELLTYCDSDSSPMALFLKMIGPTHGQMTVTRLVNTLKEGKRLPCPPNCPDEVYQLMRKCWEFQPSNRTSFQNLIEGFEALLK
Outline: as §1

YES = biological target: T4, YES (Homo sapiens, UniProt P07947)
T4 construct: gene YES1
Outline: as §1

GCN2(Kin.Dom.2,S808G) = biological target: T5, GCN2(Kin.Dom.2,S808G) (Homo sapiens, UniProt Q9P2K8, S808G)
T5 construct: gene EIF2AK4; Kin.Dom.2
Outline: as §1

Sequence of AURKA (O14965 whole entry): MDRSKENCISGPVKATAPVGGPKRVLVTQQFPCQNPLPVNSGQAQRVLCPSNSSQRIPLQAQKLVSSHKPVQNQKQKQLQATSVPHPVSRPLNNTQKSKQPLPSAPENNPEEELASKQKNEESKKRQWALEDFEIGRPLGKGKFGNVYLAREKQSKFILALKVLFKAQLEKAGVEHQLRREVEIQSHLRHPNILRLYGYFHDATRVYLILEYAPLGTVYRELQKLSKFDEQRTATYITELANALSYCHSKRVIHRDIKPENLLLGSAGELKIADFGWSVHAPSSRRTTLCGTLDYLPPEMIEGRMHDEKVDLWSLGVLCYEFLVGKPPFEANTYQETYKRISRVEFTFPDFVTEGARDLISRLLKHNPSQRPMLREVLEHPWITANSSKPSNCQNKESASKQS

inhibition at 1 µM (AURKA): 14%
inhibition at 1 µM (ASK1): 0%
inhibition at 1 µM (KIT(L576P)): 0%
inhibition at 1 µM (ERBB4): 0%
inhibition at 1 µM (PDPK1): 0%
inhibition at 1 µM (ZAP70): 0%
inhibition at 1 µM (EGFR(G719S)): 0%
inhibition at 1 µM (PKMYT1): 0%
inhibition at 1 µM (EGFR(L858R)): 4%
inhibition at 1 µM (CAMK1): 0%
inhibition at 1 µM (CDK8): 0%
inhibition at 1 µM (PHKG2): 2%
inhibition at 1 µM (FLT3): 10%
inhibition at 1 µM (TLK1): 9%
inhibition at 1 µM (PRKG2): 21%
inhibition at 1 µM (DDR2): 38%
inhibition at 1 µM (EGFR(G719C)): 0%
inhibition at 1 µM (BTK): 26%
inhibition at 1 µM (ERK5): 5%
inhibition at 1 µM (HIPK4): 0%
inhibition at 1 µM (BMPR1B): 31%
inhibition at 1 µM [1]: 0%
inhibition at 1 µM (YES): 0%
inhibition at 1 µM (GCN2(Kin.Dom.2,S808G)): 0%
Compound: CNS(=O)(=O)c1ccc(N(C)C)c(Nc2nc(C)nc3cc(OC)c(OC)cc23)c1 [compound 15, 3-((6,7-dimethoxy-2-methylquinazolin-4-yl)amino)-4-(dimethylamino)-N-methylbenzenesulfonamide]
